Laboratory results from ChEMBL document CHEMBL1129337, “Aristeromycin-5'-carboxaldehyde: a potent inhibitor of S-adenosyl-L-homocysteine hydrolase” (J Med Chem, 1996).

What was measured:
Adenosylhomocysteinase [1] = molecular target: T1, Adenosylhomocysteinase (Homo sapiens, UniProt P23526); assay: Binding affinity towards purified recombinant human placental S-adenosyl-L-homocysteine hydrolase
Target sequence in this assay (P23526 whole entry): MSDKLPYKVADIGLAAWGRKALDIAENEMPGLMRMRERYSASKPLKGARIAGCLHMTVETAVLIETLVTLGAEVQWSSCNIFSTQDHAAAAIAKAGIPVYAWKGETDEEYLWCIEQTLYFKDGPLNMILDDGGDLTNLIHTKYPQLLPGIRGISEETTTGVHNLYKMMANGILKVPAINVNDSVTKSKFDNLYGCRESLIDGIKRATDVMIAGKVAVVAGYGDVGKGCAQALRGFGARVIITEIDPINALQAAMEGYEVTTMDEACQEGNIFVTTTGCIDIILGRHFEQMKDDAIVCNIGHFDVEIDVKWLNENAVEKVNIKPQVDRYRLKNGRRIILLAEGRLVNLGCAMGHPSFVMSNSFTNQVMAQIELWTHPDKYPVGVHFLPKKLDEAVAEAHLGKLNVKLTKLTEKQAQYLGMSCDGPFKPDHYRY

Adenosylhomocysteinase [2] = molecular target: T1, Adenosylhomocysteinase
Target sequence in this assay (P23526 2-432 limits assumed): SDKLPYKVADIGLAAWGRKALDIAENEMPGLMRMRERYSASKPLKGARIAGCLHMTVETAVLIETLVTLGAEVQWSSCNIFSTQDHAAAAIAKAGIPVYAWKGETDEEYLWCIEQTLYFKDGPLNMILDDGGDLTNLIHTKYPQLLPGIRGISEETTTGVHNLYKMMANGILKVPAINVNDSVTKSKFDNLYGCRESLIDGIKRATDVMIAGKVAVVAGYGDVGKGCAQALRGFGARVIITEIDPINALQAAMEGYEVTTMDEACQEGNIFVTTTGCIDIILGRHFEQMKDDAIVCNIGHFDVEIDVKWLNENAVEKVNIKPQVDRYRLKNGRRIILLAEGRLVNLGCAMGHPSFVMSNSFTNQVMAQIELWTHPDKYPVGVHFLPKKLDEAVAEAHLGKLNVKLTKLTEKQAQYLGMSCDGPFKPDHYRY
Description: Apparent inactivation rate constant (k2) for S-adenosyl-L-homocysteine hydrolase

| Ki (Adenosylhomocysteinase [1]) | k2 (Adenosylhomocysteinase [2]) | Compound |
| --- | --- | --- |
| 39 nM | 0.65 min⁻¹ | Nc1ncnc2c1ncn2[C@@H]1O[C@@H](C=O)[C@@H](O)[C@H]1O |
| 273 nM | 1.2 min⁻¹ | Nc1ncnc2c1ncn2[C@@H]1C[C@@H](C=O)[C@@H](O)[C@H]1O |
| 43 nM | 0.22 min⁻¹ | Nc1ncnc2c1ncn2[C@@H]1O[C@H](C=O)[C@@H](O)[C@H]1O |
| 4500 nM | 0.37 min⁻¹ | Nc1ncnc2c1ncn2[C@@H]1C[C@H](C=O)[C@@H](O)[C@H]1O |
